Laboratory results from patent publication US20020188026A1, “Methods of sterilizing with dipercarboxylic acids” (Lynntech, Inc., priority 2000, published 2002).
Values joined by “and” are separate entries in the source; they are usually repeats but may differ in a detail not shown here. Identical values can stand only once.

Assays:
[1] = Crude estimate of solubility in water; type: physicochemical; details: crude experiment, estimated
Description: A crude experiment was done to first estimate the solubility in water of diperglutaric acid (C5), dipersuberic acid (C8), and dipersebacic acid (C10) prepared in accordance with Example 1. It was estimated that the limit of solubility of these peracids in water was 10%, 0.8%, and 0.1% wt/v for diperglutaric, dipersuberic, and dipersebacic, respectively.

Bacillus subtilis spores = test: Sporicidal testing, spores heat fixed to glass slides; type: cell-based; details: for Log10 post-disinfection count (cfu/coupon): pre-disinfection 6.69
Protocol: Additional spore testing experiments were done with diperglutaric acid. In this example, the diperglutaric acid was dissolved in a 90% water and 10% ethanol solution and used to kill Bacillus subtilis spores. […] Sporicidal capabilities of diperglutaric acid were tested at various concentrations. These procedures called for a 30-minute treatment of Bacillus subtilis spores heat fixed to glass slides. Glass slides were cut in half lengthwise. A suspension of spores, obtained from Steris Corporation of Mentor, Ohio (order #Na026) in 10% bovine serum albumin (as a simulated organic load) was prepared at a concentration of 1.2×10^8 spores per mL. 100 μL of this suspension was heat-fixed to each glass slide. These slides were immersed in the following dilutions of the diperglutaric acid: 2%, 1%, 0.3%, 0.1%, and 0.03%.
Control slides were treated in glutaric acid: 2% and 1% in a 10% ethanol/water solution. All treatment concentrations were tested in duplicate. The spore coupons were immersed in 30 ml of test solution for 30 minutes. Following the treatment, the slides were rinsed in sterile water to remove residual acid. Each slide was then placed in a sterile 15-ml test tube containing 2 ml of sterile water. These tubes were sonicated for one hour to resuspend all spores. The sonicated slides were removed from the test tubes. The remaining solutions were serially diluted, plated in duplicate on nutrient agar and incubated for 18-24 hours at 37° C.
The control values (pre-disinfection counts) were obtained from spore carriers immersed in sterile distilled water for 30 minutes prior to rinsing, recovery, and enumeration. The average log10 recovery from these controls was log106.69 per carrier. This compares favorably with the initial number of spores added, which was log107.08. The number of viable spores recovered was 40% of the number initially applied. […] Losses of 90% or less are generally considered acceptable in this type of experiment. […] A log reduction of less than log100.5cfu/carrier was achieved. Thus, the unreacted parent carboxylic acid has little effect on spores. […] Even at a concentration of 0.33%, the diperglutaric acid's effect on spores was similar to that of 2% glutaraldehyde.

Escherichia coli = test: Zone of inhibition test; type: cell-based; details: E. coli, 20 μL on 6 mm disc, duplicate experiments
Protocol: (§1) Zone of inhibition tests are qualitative screens for the inhibitory effect of the compound being tested. Clear zones created by a compound on a bacterial lawn indicates bacteriostatic ability and possible bactericidal capability and the size of the zone of inhibition is a semi-qualitative measure of the strength of the compound. The procedure involved creating lawns of bacteria by spreading 100 μL of broth culture evenly on nutrient agar plates. The bacteria were drawn from broth cultures that had recently reached maximum density. The organisms were Staphylococcus aureus, Psuedomonas aeruginosa, and Escherichia coli. Sterile, 6 mm, white paper discs were placed in the middle of each bacterial lawn. 20 μL of treatment were dispensed onto the surface of each disc. The treatments were: 1.0% and 0.033% diperglutaric acid, 1.0% glutaric acid in water. Each treatment was performed in duplicate for each organism. The plates were incubated at 37° C. for 18-24 hours. All zones were then measured in millimeters across the diameter of the zone of inhibition.

Psuedomonas aeruginosa = test: Zone of inhibition test; type: cell-based; details: P. aeruginosa, 20 μL on 6 mm disc, duplicate experiments
Protocol: as §1

Staphylococcus aureus = test: Zone of inhibition test; type: cell-based; details: S. aureus, 20 μL on 6 mm disc, duplicate experiments
Protocol: as §1

P. aeruginosa = test: Biopsy punch enumeration; type: cell-based; details: 1% treatment
Protocol: (§2) Biopsy punch enumeration is an extension of the zone of inhibition test, which involves enumerating organisms on the surface or within a removed core (punch). This test provides a quantitative analysis of the viable organisms remaining after treatment. This procedure was carried out exactly the same as the zone of inhibition testing. After incubation, however, the disc was removed from the plate and a 6-mm core was taken with a sterile, disposable biopsy punch precisely in the location where the disc had been removed. The same three organisms were used and the following treatments were sampled in duplicate: 1.0% diperglutaric acid and 1.0% glutaric acid in water. The core of each plate was aseptically placed in a microcentrifuge tube with 1 ml of sterile 0.85% saline solution and placed on a vortex for 5 minutes. These samples were diluted and plated in duplicate on nutrient agar and allowed to incubate at 37° C. for 18-24 hours for enumeration.

E. coli = test: Biopsy punch enumeration; type: cell-based; details: 1% treatment
Protocol: as §2

S. aureus = test: Biopsy punch enumeration; type: cell-based; details: 1% treatment
Protocol: as §2

[2] = concentrated peracid solution; cited from earlier work
[3] = 2.0% freshly prepared glutaraldehyde preparation

In the case of `O=C(CCCCCCCCC(=O)OO)OO` [dipersebacic acid], the “limit of solubility in water” value [1] is reported as 0.1 % wt/v.
With `O=C(CCCC(=O)OO)OO` [Diperglutaric acid, diperglutaric acid] the “Average log10 postdisinfection count (cfu/coupon)” value (Bacillus subtilis spores; 0.033% in 10% EtOH, 30 minutes) was 4.99 cfu/coupon, the “Average log10 reduction (cfu/coupon)” value (Bacillus subtilis spores; 0.033% in 10% EtOH, 30 minutes) was 1.70 cfu/coupon and the “Average log10 postdisinfection count (cfu/coupon)” value (Bacillus subtilis spores; 0.1% in 10% EtOH, 30 minutes) was 4.72 cfu/coupon. For the same molecule, the “Average log10 reduction (cfu/coupon)” value (Bacillus subtilis spores; 0.1% in 10% EtOH, 30 minutes) was 1.97 cfu/coupon, the “Average log10 postdisinfection count (cfu/coupon)” value (Bacillus subtilis spores; 0.33% in 10% EtOH, 30 minutes) was 3.57 cfu/coupon and the “Average log10 reduction (cfu/coupon)” value (Bacillus subtilis spores; 0.33% in 10% EtOH, 30 minutes) was 3.12 cfu/coupon. The “Log10 post-disinfection count (cfu/coupon)” value (Bacillus subtilis spores; 0.33% in 10% EtOH, 30 minutes) was 3.62 cfu/coupon and 3.52 cfu/coupon, the “viable spores recovered from carriers” value (Bacillus subtilis spores; 1% and 2% for 30 minutes) was “no viable spores were recovered” and the “Average log10 postdisinfection count (cfu/coupon)” value (Bacillus subtilis spores; 1.0% in 10% EtOH, 30 minutes) was under 1.0 cfu/coupon. The “Average log10 reduction (cfu/coupon)” value (Bacillus subtilis spores; 1.0% in 10% EtOH, 30 minutes) was 6.69 cfu/coupon, the “Average log10 postdisinfection count (cfu/coupon)” value (Bacillus subtilis spores; 2.0% in 10% EtOH, 30 minutes) was under 1.0 cfu/coupon and the “Average log10 reduction (cfu/coupon)” value (Bacillus subtilis spores; 2.0% in 10% EtOH, 30 minutes) was 6.69 cfu/coupon. The “Diameter of Zones of Inhibition” value (Escherichia coli; 0.033%) was 10 mm, 10 mm, the “Diameter of Zones of Inhibition” value (Escherichia coli; 1% in water) was 12 mm and 13 mm and the “Diameter of Zones of Inhibition” value (Psuedomonas aeruginosa; 0.033%) was 10 mm and 11 mm. The “Diameter of Zones of Inhibition” value (Psuedomonas aeruginosa; 1% in water) was 12 mm, 12 mm, the “Diameter of Zones of Inhibition” value (Staphylococcus aureus; 0.033%) was 10 mm and 9 mm and the “Diameter of Zones of Inhibition” value (Staphylococcus aureus; 1% in water) was 13 mm, 13 mm. For the same molecule, the “Log10 reduction (cfu/6 mm diameter sample)” value (P. aeruginosa) was 7.53 cfu/6 mm diameter sample, the “Log10 reduction (cfu/6 mm diameter sample)” value (E. coli) was 7.44 log10 and the “Log10 reduction (cfu/6 mm diameter sample)” value (S. aureus) was 8.11 cfu/6 mm diameter sample. The “limit of solubility in water” value [1] was 10 % wt/v.
With `O=C(O)CCCC(=O)O` [Glutaric acid, reference compound] the “Average log10 postdisinfection count (cfu/coupon)” value (Bacillus subtilis spores; 1.0% in 10% EtOH, 30 minutes) was 6.23 cfu/coupon, the “Average log10 reduction (cfu/coupon)” value (Bacillus subtilis spores; 1.0% in 10% EtOH, 30 minutes) was 0.46 cfu/coupon and the “Log10 post-disinfection count (cfu/coupon)” value (Bacillus subtilis spores; 1.0% in 10% EtOH, 30 minutes) was 6.26 cfu/coupon and 6.19 cfu/coupon. The “Average log10 postdisinfection count (cfu/coupon)” value (Bacillus subtilis spores; 2.0% in 10% EtOH, 30 minutes) was 6.26 cfu/coupon, the “Average log10 reduction (cfu/coupon)” value (Bacillus subtilis spores; 2.0% in 10% EtOH, 30 minutes) was 0.43 cfu/coupon and the “Log10 post-disinfection count (cfu/coupon)” value (Bacillus subtilis spores; 2.0% in 10% EtOH, 30 minutes) was 6.27 cfu/coupon and 6.24 cfu/coupon. For the same molecule, the “sporicidal effectiveness” value (Bacillus subtilis spores; concentrations of 1% and 2% for 30 minutes) was “not an effective sporicidal agent”, the “Diameter of Zones of Inhibition” value (Escherichia coli; 1% in water) was “No zone” and the “Diameter of Zones of Inhibition” value (Psuedomonas aeruginosa; 1% in water) was “No zone”. The “Diameter of Zones of Inhibition” value (Staphylococcus aureus; 1% in water) was “No zone”, the “Log10 reduction (cfu/6 mm diameter sample)” value (P. aeruginosa) was 0.00 cfu/6 mm diameter sample and the “Log10 postdisinfection count (cfu/6 mm diameter sample)” value (P. aeruginosa; predisinfection 7.53) was 7.57 cfu/6 mm diameter sample. The “Log10 postdisinfection count (cfu/6 mm diameter sample)” value (E. coli; predisinfection 7.44) was 6.75 cfu/6 mm diameter sample, the “Log10 reduction (cfu/6 mm diameter sample)” value (S. aureus) was 0.63 cfu/6 mm diameter sample and the “Log10 postdisinfection count (cfu/6 mm diameter sample)” value (S. aureus; predisinfection 8.11) was 7.48 cfu/6 mm diameter sample.
For `O=C(CCC(=O)OO)OO` [dipersuccinic acid, reference compound], the “stability of peracid concentrate” value [2] is given as “did not form stable peracid concentrates”.
With `O=C(CCCCCCC(=O)OO)OO` [dipersuberic acid] the “limit of solubility in water” value [1] was 0.8 % wt/v.
For `O=C(CCCCC(=O)OO)OO` [diperadipic acid], the “solubility for peracid concentrate solution” value [2] is listed as “not soluble enough to prepare an adequate peracid concentrate solution”.
With `O=CCCCC=O` [Glutaraldehyde, reference compound] the “Average log10 postdisinfection count (cfu/coupon)” value (Bacillus subtilis spores; [3]) was 3.10 cfu/coupon and the “Average log10 reduction (cfu/coupon)” value (Bacillus subtilis spores; [3]) was 3.05 cfu/coupon.
